The text below walks through data of patent EP1289977B1, “TRITERPENOID DERIVATIVES AND THEIR USE AS ANTIPROLIFERATIVE AGENTS” (Univerzita palackeho V Olomouci, priority 2000, dated 2001).

Molecules are shown by their SMILES.

Format in all cases: cell-based
In test [1] the test system is B16F. The test is described as follows: MTT cytotoxicity assay, B16F. The conditions noted are these: mouse melanoma, metastatic, 72 hours, read-out: TCS50. The text has this: (§1) One of the parameters used as the basis for colorimetric assays is the metabolic activity of viable cells. For example, a microtiter assay which uses the tetrazolium salt MTT is now widely used to quantitate cell proliferation and cytotoxicity [Hajduch M, Mihal V, Minarik J, Fáber E, ? afárová M, Weigl E, Antálek P.: Cytotechnology, 1996,19,243-245]. For instance, this assay is used in drug screening programs and in chemosensitivity testing. Because tetrazolium salts are cleaved only by metabolically active cells, these assays exclusively detect viable cells. In the case of the MTT assay, yellow soluble tetrazolium salt is reduced to a coloured water-insoluble formazan salt. After it is solubilized, the formazan formed can easily and rapidly be quantified in a conventional ELISA plate reader at 570 nm (maximum absorbancy). The quantity of reduced formazan corresponds to the number of vital cells in the culture. […]
(§2) The cell suspensions that were prepared and diluted according to the particular cell type and the expected target cell density (2.500-30.000 cells per well based on cell growth characteristics) were added by pipette (80 µl) into 96/well microtiter plates. […] Usually, test compounds were evaluated at six 4-fold dilutions. […] The optical density (OD) was measured at 540nm with the Labsystem iEMS Reader MF (UK). […]
A general note: Formazan colour is commonly taken as a measure of viable cells.

The subject of test [2] is K562-CdA. As to the kind of experiment: MTT cytotoxicity assay, K562-CdA. To be noted: human chronic myelogenous leukemia, cladrubin resistant, 72 hours, read-out: TCS50.
Description: as §1, §2

The test system of test [3] is A549. As to the kind of experiment: MTT cytotoxicity assay, A549. To be noted: A549, human lung adenocarcinoma, 72 hours, read-out: TCS50.
Description: as §1, §2

In test [4] the test system is Saos2. As to the kind of experiment: MTT cytotoxicity assay, Saos2. The conditions noted are these: SAOS-2, Saos2, human osteosarcoma, p53-/-, Rb-/-, 72 hours, read-out: TCS50.
Description: as §1, §2

The test system of test [5] is CEM-VCR 1/F3. As to the kind of experiment: MTT cytotoxicity assay, CEM-VCR 1/F3. To be noted: CEM-VCR 1/F3, human T-lymphoblastic leukemia, vincristin resistant, 72 hours, read-out: TCS50.
Description: as §1, §2

Test [6] concerns U20S. As to the kind of experiment: MTT cytotoxicity assay, U20S. To be noted: human osteosarcoma, p53+/-, Rb +/-, 72 hours, read-out: TCS50.
Description: as §1, §2

The subject of test [7] is U87MG. The test is described as follows: MTT cytotoxicity assay, U87MG. The conditions noted are these: U-87 MG, human glioblastoma, 72 hours, read-out: TCS50.
Description: as §1, §2

Test [8] concerns LNCaP. As to the kind of experiment: MTT cytotoxicity assay, LNCaP. The conditions noted are these: human prostate cancer, androgen dependent, 72 hours, read-out: TCS50.
Description: as §1, §2

Test [9] concerns B16. As to the kind of experiment: MTT cytotoxicity assay, B16. The conditions noted are these: B16, mouse melanoma, 72 hours, read-out: TCS50.
Description: as §1, §2

Test [10] has as its system CEM-VCR 3/D5. The test is described as follows: MTT cytotoxicity assay, CEM-VCR 3/D5. The conditions noted are these: CEM-VCR 3/D5, human T-lymphoblastic leukemia, vincristin resistant, 72 hours, read-out: TCS50.
Description: as §1, §2

Test [11] has as its system K562-ARA-C. As to the kind of experiment: MTT cytotoxicity assay, K562-ARA-C. To be noted: human chronic myelogenous leukemia, cytarabin resistant, 72 hours, read-out: TCS50.
Description: as §1, §2

For test [12], the system named is MEL-3. As to the kind of experiment: MTT cytotoxicity assay, MEL-3. To be noted: MEL-3, human melanoma, 72 hours, read-out: TCS50.
Description: as §1, §2

For test [13], the system named is OVCAR-3. As to the kind of experiment: MTT cytotoxicity assay, OVCAR-3. To be noted: OVCAR-3, human ovarian cancer, 72 hours, read-out: TCS50.
Description: as §1, §2

Test [14] relates to CEM-DNR 1/C2. The test is described as follows: MTT cytotoxicity assay, CEM-DNR 1/C2. To be noted: CEM-DNR 1/C2, human T-lymphoblastic leukemia, daunorubicin resistant, 72 hours, read-out: TCS50.
Description: as §1, §2

For test [15], the system named is CEM. As to the kind of experiment: MTT cytotoxicity screening assay, CEM. To be noted: CCRF-CEM, human T-lymphoblastic leukemia, 72 hours, read-out: TCS50. The text has this: One of the parameters used as the basis for colorimetric assays is the metabolic activity of viable cells. For example, a microtiter assay which uses the tetrazolium salt MTT is now widely used to quantitate cell proliferation and cytotoxicity [Hajduch M, Mihal V, Minarik J, Fáber E, ? afárová M, Weigl E, Antálek P.: Cytotechnology, 1996,19,243-245]. For instance, this assay is used in drug screening programs and in chemosensitivity testing. Because tetrazolium salts are cleaved only by metabolically active cells, these assays exclusively detect viable cells. In the case of the MTT assay, yellow soluble tetrazolium salt is reduced to a coloured water-insoluble formazan salt. After it is solubilized, the formazan formed can easily and rapidly be quantified in a conventional ELISA plate reader at 570 nm (maximum absorbancy). The quantity of reduced formazan corresponds to the number of vital cells in the culture.
Human T-lymphoblastic leukaemia cell line CEM was used for routine screening of these compounds. […] The cells were maintained in Nunc/Coming 80 cm^2 plastic tissue culture flasks and cultured in cell culture medium (DMEM with 5 g/l glucose, 2mM glutamine, 100 U/ml penicillin, 100 µg/ml streptomycin, 10% foetal calf serum and sodium bicarbonate). Individual compounds were dissolved in 10% dimethylsulfoxide/saline, pH 8.0.
The cell suspensions that were prepared and diluted according to the particular cell type and the expected target cell density (2.500-30.000 cells per well based on cell growth characteristics) were added by pipette (80 µl) into 96/well microtiter plates. Inoculates were allowed a pre-incubation period of 24 hours at 37°C and 5% CO2 for stabilisation. Four-fold dilutions of the intended test concentration were added at time zero in 20 µl aliquots to the microtiter plate wells. Usually, test compounds were evaluated at six 4-fold dilutions. In routine testing, the highest well concentration was 250 µM, but it may differ, depending on the agent. All drug concentrations were examined in duplicate. Incubations of cells with the test compounds lasted for 72 hours at 37°C, in 5% CO2 atmosphere and 100% humidity. At the end of the incubation period, the cells were assayed by using the MTT assay. Ten microliters of the MTT stock solution were pipetted into each well and incubated further for 1-4 hours. […] The optical density (OD) was measured at 540nm with the Labsystem iEMS Reader MF (UK). The tumour cell survival (TCS) was calculated using the following equitation: TCS= (ODdrug exposed well /mean ODcontrol wells) x 100%. The TCS50 value, the drug concentration lethal to 50% of the tumour cells, was calculated from the obtained dose response curves. […]

In test [16] the test system is NIH3T3. The test is described as follows: MTT cytotoxicity assay, NIH3T3. To be noted: NIH3T3, mouse immortalised fibroblasts (non-malignant), 72 hours, read-out: TCS50.
Description: as §1, §2

In test [17] the test system is DU145. The test is described as follows: MTT cytotoxicity assay, DU145. The conditions noted are these: DU-145, DU145, human prostate cancer, androgen independent, Rb-/-, 72 hours, read-out: TCS50.
Description: as §1, §2

In test [18] the test system is HT-29. As to the kind of experiment: MTT cytotoxicity assay, HT-29. To be noted: HT-29, human colon cancer, 72 hours, read-out: TCS50.
Description: as §1, §2

The subject of test [19] is MCF-7. As to the kind of experiment: MTT cytotoxicity assay, MCF-7. To be noted: MCF7, MCF-7, human breast cancer, estrogen dependent, p53+/+, Rb +/+, 72 hours, read-out: TCS50.
Description: as §1, §2

The test system of test [20] is MDA-MB-238. The test is described as follows: MTT cytotoxicity assay, MDA-MB-238. To be noted: MDA-MB-238, human breast cancer, estrogen independent, p53mut/mut, 72 hours, read-out: TCS50.
Description: as §1, §2

The subject of test [21] is K562. As to the kind of experiment: MTT cytotoxicity assay, K562. To be noted: K562, human chronic myelogenous leukemia, 72 hours, read-out: TCS50.
Description: as §1, §2

The subject of test [22] is BT549. The test is described as follows: MTT cytotoxicity assay, BT549. To be noted: BT-549, BT549, human breast cancer, p53mut/mut, 72 hours, read-out: TCS50.
Description: as §1, §2

Test [23] relates to SW620. The test is described as follows: MTT cytotoxicity assay, SW620. The conditions noted are these: SW-620, SW620, human colon cancer, metastasis, 72 hours, read-out: TCS50.
Description: as §1, §2

For test [24], the system named is CEM-DNR bulk. As to the kind of experiment: MTT cytotoxicity assay, CEM-DNR bulk. To be noted: human T-lymphoblastic leukemia, daunorubicin resistant, 72 hours, read-out: TCS50.
Description: as §1, §2

Test [25] deals with Caco-2. The test is described as follows: MTT cytotoxicity assay, Caco-2. The conditions noted are these: Caco-2, human colon cancer, 72 hours, read-out: TCS50.
Description: as §1, §2

The subject of test [26] is CEM-VCR bulk. As to the kind of experiment: MTT cytotoxicity assay, CEM-VCR bulk. To be noted: human T-lymphoblastic leukemia, vincristin resistant, 72 hours, read-out: TCS50.
Description: as §1, §2

For test [27], the system named is K562-FLUD. As to the kind of experiment: MTT cytotoxicity assay, K562-FLUD. To be noted: human chronic myelogenous leukemia, fludarabin resistant, 72 hours, read-out: TCS50.
Description: as §1, §2

Test [28] deals with HepG2. As to the kind of experiment: MTT cytotoxicity assay, HepG2. To be noted: HepG2, human hepatocellular carcinoma, 72 hours, read-out: TCS50.
Description: as §1, §2

Test [29] has as its system human normal lymphocytes. The test is described as follows: MTT cytotoxicity assay, normal lymphocytes. The conditions noted are these: Lymphocyte, human normal lymphocytes (non-malignant), 72 hours, read-out: TCS50.
Description: as §1, §2

In test [30] the test system is K562-GEM. As to the kind of experiment: MTT cytotoxicity assay, K562-GEM. To be noted: human chronic myelogenous leukemia, gemcitabin resistant, 72 hours, read-out: TCS50.
Description: as §1, §2

In the case of `C=C(C)[C@@H]1CC[C@]2(C(=O)O)CC[C@]3(C)[C@H](CC[C@@H]4[C@@]5(C)CC[C@H](O)C(C)(C)[C@@H]5CC[C@]43C)[C@@H]12` [Betulinic Acid, betulinic acid, reference compound], the IC50 was determined as 4.6 µM in [1]; 250 µM in test [2]; 236 µM in [3]; 250 µM in test [4]; 19 µM in test [5]; 250 µM in [6]. In addition, the IC50 was determined as 250 µM in [7]; 244 µM in [8]; 36 µM in [9]; 24 µM in [10]; 250 µM in test [11]; 2.7 µM in test [12]. The IC50 in test [13] was 164 µM; in test [14], 250 µM; in test [15], 250 µM; in test [16] it was 250 µM; in test [17], 241 µM; in [18], 250 µM. The IC50 came to 194 µM in test [19]; 195 µM in test [20]; 250 µM in test [21]; 250 µM in [22]; 250 µM in test [23]; 250 µM in [24]. Moreover, the IC50 in test [25] came out at 20 µM; in test [26] it was 69 µM; in test [27] it was 250 µM; in test [28], 3.6 µM; in [29], 250 µM.

Turning to `CC1(C)CC[C@]23CC[C@]4(C)[C@H](CC[C@@H]5[C@@]6(C)CC(F)(F)C(=O)C(C)(C)[C@@H]6CC[C@]54C)[C@H]2[C@H]1OC3` [III.14, 19β,28β-epoxy-2,2-difluoro-18α-oleanan-3-one], in test [15], the IC50 was 170 µM.

For `CC1(C)CC[C@]23CC[C@]4(C)[C@H](CC[C@@H]5[C@@]6(C)CC(N=[N+]=[N-])C(=O)C(C)(C)[C@@H]6CC[C@]54C)[C@H]2[C@H]1OC3` (stereo partly drawn) [III.10, 2-azido-3-oxo-19β,28β-epoxy-18α-oleanan], the IC50 in test [15] was 13 µM.

For `CC1(C)CC[C@]23CC[C@]4(C)[C@H](CC[C@@H]5[C@@]6(C)CC(Br)C(=O)C(C)(C)[C@@H]6CC[C@]54C)[C@H]2[C@H]1OC3` (stereo partly drawn) [III.3, 2-brom-3-oxo-19β,28β-epoxy-18α-oleanan], the IC50 in test [1] is 4.7 µM; in [2], 0.3 µM; in test [3] it was 1 µM; in [4], 1.8 µM; in [5] it was 3.3 µM; in [6], 1.5 µM. The IC50 came out at 5.1 µM in test [7]; 1.1 µM in test [8]; 2.1 µM in test [9]; 0.9 µM in test [30]; 2.9 µM in [10]; 0.6 µM in test [11]. Besides, the IC50 worked out at 1.3 µM in [12]; 1 µM in [13]; 0.6 µM in test [14]; 1 µM in test [15]; 7.2 µM in test [16]; 0.8 µM in [17]. Besides, the IC50 in test [18] was 1.6 µM; in test [19], 2.3 µM; in test [20], 1.4 µM; in test [21], 0.2 µM; in [22], 2 µM; in [23] it was 1.2 µM. In addition, the IC50 in [24] was 1.1 µM; in [25], 3 µM; in [26], 2.5 µM; in test [27], 0.4 µM; in test [28] it was 1.7 µM; in test [29], 13 µM.
